Assay results: ChEMBL document CHEMBL4680232, “Discovery of small molecules targeting GRP78 for antiangiogenic and anticancer therapy” (Eur J Med Chem, 2020)
The source made the active and inactive calls. The rule behind the calls is not given here.

Tests used:
[1] = target: Endoplasmic reticulum chaperone BiP (Homo sapiens) (UniProt P11021); conditions: dose 500.0 µM
Description: Binding affinity to N-terminal His-tagged GRP78 (unknown origin) assessed as change in melting temperature at 500 uM by differential scanning fluorimetry

HUVEC [2] = assay: Antiangiogenic activity against VEGF-stimulated HUVEC assessed as reduction in cell viability at 10 uM measured after 48 hrs by MTT assay relative to control; assay type: functional
HUVEC [3] = assay: Antiangiogenic activity against VEGF-stimulated HUVEC assessed as reduction in cell viability measured after 48 hrs by MTT assay; assay type: functional, cell-based; conditions: Homo sapiens
[4] = target: Endoplasmic reticulum chaperone BiP (Homo sapiens) (UniProt P11021); assay: Binding affinity to human GRP78 at 1 uM measured after 30 mins by UF-ASMS analysis relative to control
HUVEC [5] = assay: Antiangiogenic activity against VEGF-stimulated HUVEC assessed as reduction in cell viability at 100 uM measured after 48 hrs by MTT assay relative to control; assay type: functional, Homo sapiens
HUVEC [6] = assay: Antiangiogenic activity against VEGF-stimulated HUVEC assessed as reduction in cell viability up to 100 uM measured after 48 hrs by MTT assay; assay type: functional, cell-based; conditions: Homo sapiens, dose microM <=100, time 48.0 hrs
786-0 [7] = assay: Cytotoxicity against human 786-0 cells assessed reduction in cell viability at 10 uM after 48 hrs by MTT assay; assay type: functional, cell-based
786-0 [8] = assay: Cytotoxicity against human 786-0 cells assessed reduction in cell viability at 100 uM after 48 hrs by MTT assay; assay type: functional, cell-based
786-0 [9] = assay: Cytotoxicity against human 786-0 cells assessed reduction in cell viability after 48 hrs by MTT assay; assay type: functional

Endoplasmic reticulum chaperone BiP (Homo sapiens), sequence (P11021 whole entry): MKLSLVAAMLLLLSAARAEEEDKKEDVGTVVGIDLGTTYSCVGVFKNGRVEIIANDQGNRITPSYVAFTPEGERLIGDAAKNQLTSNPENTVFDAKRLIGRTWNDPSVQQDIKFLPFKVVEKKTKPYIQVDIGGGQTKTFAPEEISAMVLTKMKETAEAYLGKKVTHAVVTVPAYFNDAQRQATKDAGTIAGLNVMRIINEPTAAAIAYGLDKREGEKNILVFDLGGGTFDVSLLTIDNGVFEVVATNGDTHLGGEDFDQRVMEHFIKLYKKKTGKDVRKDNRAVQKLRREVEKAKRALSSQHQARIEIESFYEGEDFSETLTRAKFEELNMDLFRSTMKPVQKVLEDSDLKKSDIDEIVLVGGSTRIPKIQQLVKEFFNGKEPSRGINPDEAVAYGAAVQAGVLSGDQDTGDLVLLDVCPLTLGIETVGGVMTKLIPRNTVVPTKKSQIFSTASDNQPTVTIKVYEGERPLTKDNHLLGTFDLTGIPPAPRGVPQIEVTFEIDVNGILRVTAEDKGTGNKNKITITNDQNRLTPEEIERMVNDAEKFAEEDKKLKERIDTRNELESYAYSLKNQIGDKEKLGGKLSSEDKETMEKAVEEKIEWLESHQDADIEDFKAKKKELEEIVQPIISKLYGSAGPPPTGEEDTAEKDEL

Nc1ncnc2c1ncn2[C@@H]1O[C@H](COP(=O)(O)OP(=O)(O)OP(=O)(O)O)[C@@H](O)[C@H]1O
ΔTm [1]: 4.65 °C

CC(C)CNC(=O)c1c(-c2ccc(COC(=O)c3ccc(N(C)C)cc3)cc2)oc2ccccc12
Activity (HUVEC [2]; Homo sapiens): inactive | CC50 (HUVEC [3]; time 48 hrs): 100 µM | RBA [4]: 54% | Activity (HUVEC [5]): 50%

CC(C)CNC(=O)c1c(-c2ccc(COC(=O)c3ccccc3)cc2)oc2ccccc12
CC50 (HUVEC [3]; time 48 hrs): 100 µM | Activity (HUVEC [5]; Homo sapiens): Active

O=c1[nH]c2nccc(OCCc3ccccc3)c2[nH]c1=O
RBA [4]: 1000%

CC(C)CNC(=O)c1c(-c2ccc(COC(=O)Cc3ccc(O)cc3)cc2)oc2ccccc12
CC50 (HUVEC [3]; time 48 hrs): 100 µM | Activity (HUVEC [5]; Homo sapiens): Active

CC(C)CNC(=O)c1c(-c2ccc(COC(=O)/C=C/c3ccc(O)cc3)cc2)oc2ccccc12
CC50 (HUVEC [3]; time 48 hrs): 100 µM | Activity (HUVEC [5]; Homo sapiens): Active

CC(C)CNC(=O)c1c(-c2ccc(CO)cc2)oc2ccccc12
Activity (HUVEC [6]): inactive | CC50 (HUVEC [3]): inactive | RBA [4]: 180%

CCCCNC(=O)c1c(-c2ccc(COC(=O)c3ccc(O)cc3)cc2)oc2ccccc12
CC50 (HUVEC [3]; time 48 hrs): 100 µM | Activity (HUVEC [5]; Homo sapiens): Active

COC(=O)c1c(-c2ccc(COC(=O)c3cc(O)cc(O)c3)cc2)oc2ccccc12
ΔTm [1]: -0.76 °C | Activity (786-0 [7]): inactive | Activity (786-0 [8]): Active | CC50 (HUVEC [3]; time 48 hrs): 10 µM | Activity (HUVEC [5]; Homo sapiens): Active

CC(C)CNC(=O)c1c(-c2ccc(COC(=O)c3ccccc3O)cc2)oc2ccccc12
Activity (HUVEC [2]): 50% | CC50 (HUVEC [3]; time 48 hrs): 10 µM | RBA [4]: 501%

Nc1ccc2[nH]c(=O)c(=O)[nH]c2c1
RBA [4]: 119%

COc1ccc(OC)c(/C=C(\C#N)c2ccc(-c3oc4ccccc4c3C(=O)NCC(C)C)cc2)c1
CC50 (HUVEC [3]; time 48 hrs): 100 µM

COc1cc(OC)cc(C(=O)OCc2ccc(-c3oc4ccccc4c3C(=O)NCC(C)C)cc2)c1
CC50 (786-0 [9]): 10 µM | Activity (HUVEC [2]): 50% | ΔTm [1]: 2.65 °C | EC50 (HUVEC [3]; 48 h): 1.51 µM | CC50 (HUVEC [3]; time 48 hrs): 10 µM | RBA [4]: 143%

CCOS(=O)(=O)/C=C/c1ccc(OC)c(OCCc2nc(-c3ccccc3)sc2C)c1
RBA [4]: 129%

CC(=O)Nc1ccc(OCc2ccc(-c3oc4ccccc4c3C(=O)NCC(C)C)cc2)cc1
Activity (HUVEC [2]): 50% | CC50 (HUVEC [3]; time 48 hrs): 10 µM | RBA [4]: 61%

COc1ccc(/C=C/C(=O)OCCc2ccccc2)cc1
RBA [4]: 64%

O=C(/C=C/c1ccc(O)c(O)c1)OCCc1ccccc1
RBA [4]: 98%

C=CCc1ccc(O)c(-c2ccc(O)c(CC=C)c2)c1
Activity (HUVEC [5]; Homo sapiens): Active

Cc1oc(-c2ccccc2)nc1CCOc1cccc2oc(CCC(=O)O)nc12
RBA [4]: 160%

CC(C)CNC(=O)c1c(-c2ccc(COC(=O)c3ccc(O)cc3)cc2)oc2ccccc12
CC50 (HUVEC [3]; time 48 hrs): 100 µM | Activity (HUVEC [5]; Homo sapiens): Active

O=C(O[C@@H]1Cc2c(O)cc(O)cc2O[C@@H]1c1cc(O)c(O)c(O)c1)c1cc(O)c(O)c(O)c1
Activity (HUVEC [6]): inactive | RBA [4]: 271%

CC(C)CNC(=O)c1c(-c2ccc(COc3ccc(CO)cc3)cc2)oc2ccccc12
CC50 (786-0 [9]): 10 µM | CC50 (HUVEC [3]; time 48 hrs): 10 µM | Activity (HUVEC [5]; Homo sapiens): Active

CC(C)CNC(=O)c1cccc2nc(-c3ccc(COC(=O)Cc4ccc(O)cc4)cc3)oc12
CC50 (786-0 [9]): 10 µM | CC50 (HUVEC [3]; time 48 hrs): 10 µM | Activity (HUVEC [5]; Homo sapiens): Active

O=c1[nH]c2ccc(OCCc3ccccc3)nc2[nH]c1=O
RBA [4]: 536%

COc1cc(OC)cc(C(=O)OCc2ccc(-c3nc4cccc(C(=O)NCC(C)C)c4o3)cc2)c1
CC50 (HUVEC [3]): inactive

O=C(/C=C/c1ccc(O)c(O)c1)OCCc1ccc(Br)cc1
Activity (HUVEC [2]; Homo sapiens): inactive | RBA [4]: 90% | Activity (HUVEC [5]): 50%

CC(C)CNC(=O)c1c(-c2ccc(COC(=O)c3cc(O)cc(O)c3)cc2)oc2ccccc12
CC50 (HUVEC [3]; time 48 hrs): 100 µM | Activity (HUVEC [5]; Homo sapiens): Active
